According to patent publication US11236055B2 (Venenum Biodesign, LLC, priority 2016, dated 2022):

Legend:
[1] = tested on: Mouse STC-1 cells; assay: STC-1 GLP-1 assay; type: cell-based; details: GLP-1 secretion, 2 h, coded A-C, read-out: Mouse STC-1 HTRF GLP-1 Activity (EC50)
Experimental: We evaluated Compounds of the present invention for their ability to induce GLP-1 production in mouse intestinal neuroendocrine tumor cells. Mouse STC-1 cells were cultured and maintained in high glucose DMEM (Sigma #5796) supplemented with 15% horse serum, 5% Fetal Bovine Serum (FBS), 1% penicillin/streptomycin, and 2 mM L-alanine L-glutamine (GlutaMax). Two days prior to analysis of GLP-1 secretion cells were harvested using Accutase (Sigma), spun down then resuspended in high glucose DMEM media containing 2 mM L-alanine L-glutamine (GlutaMax), 10% charcoal-dextran stripped FBS, and 50 μg/mL Gentamicin, at a density of 100,000 cells/mL. 100 μL of cell suspension was added to each well of a 96-well Poly-D-Lysine coated culture plate (Sigma; cat #2382493) and was incubated at 37° C. with 5% CO2.
Compounds were initially diluted in 100% DMSO (12-point serial dilution by half logs) in a 96-well plate and then were further diluted 1:500 in Hanks' Balanced Salt Solution (HBSS) containing protease inhibitor cocktail, DPP-IV inhibitor, and 0.1% fatty acid free bovine serum albumin. On the day of the experiment cells were washed once with HBSS. After wash, 100 μL of test compound was added to each well. The plate was incubated at 37° C. with 5% CO2 for 2 h. Supernatants were collected and GLP-1 secretion was measured using the Cisbio™ Active GLP-1 HTRF Assay Kit (Cisbio). Briefly, Anti-GLP-1-d2 conjugate and Anti-GLP-1 Terbium Cryptate conjugate stock solutions were prepared as per kit instructions. The two solutions were pre-mixed and 10 μL were transferred to a 384-well low volume plate (Greiner; cat #784075). 10 μL of collected supernatants were added to wells already containing the conjugate solution. The plate was covered and incubated at room temperature overnight. The plate was read on an Envision™ plate reader (Perkin Elmer).
In Table 34, EC50 values obtained from the STC-1 GLP-1 production assay for compounds of the present invention are summarized.

[2] = molecular target: T1, mouse TGR5 receptor (Mus musculus, UniProt Q80SS6); assay: Mouse TGR5 cAMP production assay (HTRF, Cisbio cAMP HiRange); type: cell-based; details: HEK293-EBNA cells overexpressing mouse TGR5, HTRF cAMP HiRange; coded A-D
T1 construct: expressed in transfected cells; host or cells: HEK293-EBNA (293 c18, ATCC CRL10852), Hygromycin B selection
T1 sequence (Q80SS6 1-329): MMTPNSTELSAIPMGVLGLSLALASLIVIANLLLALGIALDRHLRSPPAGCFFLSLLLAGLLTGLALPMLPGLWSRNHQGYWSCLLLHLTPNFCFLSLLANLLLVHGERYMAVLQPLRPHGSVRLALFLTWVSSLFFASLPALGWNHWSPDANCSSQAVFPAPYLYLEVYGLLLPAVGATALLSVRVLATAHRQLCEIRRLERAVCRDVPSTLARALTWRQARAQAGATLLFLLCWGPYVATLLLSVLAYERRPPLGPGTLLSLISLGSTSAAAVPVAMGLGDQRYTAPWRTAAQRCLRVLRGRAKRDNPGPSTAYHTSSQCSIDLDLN
Method in brief: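 cAMP read by HTRF competition after 1 h room-temperature compound exposure of mouse TGR5-overexpressing HEK293-EBNA cells. Cells were suspended in serum-free DMEM containing 500 μM IBMX; compounds ran as 12-point half-log dilutions in duplicate; EC50 derived.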

[3] = molecular target: T2, human TGR5 receptor (Homo sapiens, UniProt Q8TDU6); assay: Human TGR5 cAMP production assay; type: cell-based; details: human TGR5, luminescent cAMP assay; coded A-D; read-out: Human TGR5 Lum. cAMP Activity (EC50)
T2 construct: host or cells: CHO-K1 (hTGR5-CHO cells)
T2 sequence (Q8TDU6 1-330): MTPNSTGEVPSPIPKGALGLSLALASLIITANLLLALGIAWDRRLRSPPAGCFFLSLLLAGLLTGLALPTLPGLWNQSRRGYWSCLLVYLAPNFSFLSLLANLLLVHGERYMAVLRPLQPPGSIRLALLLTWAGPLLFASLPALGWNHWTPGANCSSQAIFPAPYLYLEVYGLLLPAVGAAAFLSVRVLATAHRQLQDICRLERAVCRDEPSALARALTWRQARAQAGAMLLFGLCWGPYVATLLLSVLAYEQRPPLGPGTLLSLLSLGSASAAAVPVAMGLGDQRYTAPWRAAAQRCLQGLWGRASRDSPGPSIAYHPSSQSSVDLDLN
Method in brief: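 Intracellular cAMP read by luminescent enzyme-complementation (XS+) after overnight development, following 1 h room-temperature compound treatment of hTGR5-CHO-K1 cells in IBMX plus anti-cAMP antibody. Compounds tested as half-log dilution series; EC50 derived.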

[4] = Pharmacokinetic profile in mice; type: in vivo; details: mouse; fasted male Hilltop mice, 10 mg/kg oral gavage, plasma, mean of three mice
Experimental: Pharmacokinetic Profile in Mice
In this series of studies, the pharmacokinetic profile characteristics of compounds of the present invention were evaluated. The plasma concentration levels of the compounds were monitored in the blood stream (i.e., plasma) after oral gavage using Cmax, and area under the curve (AUC).
8 week old male Hilltop mice were fasted overnight. Animals were randomized into groups (n=9) by body weight. Mice were dosed with 10 mg/kg compound (in 20% PEG400/80% 0.5% carboxymethylcellulose (medium viscosity)+0.25% Tween-80) at a volume of 10 mL/kg through oral gavage. Blood was collected via orbital bleeding at 0, 0.25, 0.5, 1, 2, and 4 h post-dose, with no one mouse having more than 3 blood draws. Blood was collected in EDTA coated tubes. Samples were stored at −20° C. until analysis.
Quantitation of compound levels in plasma was accomplished by LC-MS/MS analysis. Standard curve and quality control samples were prepared in male CD-1 mouse plasma containing EDTA K^2+ as an anticoagulant at final concentrations ranging from 500 to 0.1 ng/mL. The plasma samples, calibration curve standards, and quality control samples were prepared in an identical method in a 96-well deep plate (1 mL) with a quenching solution (1:1 mixed acetonitrile:methanol containing the internal standard Reserpine @ 400 ng/mL). Low volume samples were supplemented with CD-1 mouse plasma. The plate was mixed on multi-tube votex for 1 min and centrifuged at 4000 rpm for 30 min at 4° C. (Sorvall® Super T21) before LC-MS/MS analysis. LC conditions were developed and optimized based on each compound as needed. The outlet of the column was coupled to AB Sciex 4000 QTrap Mass Spectrometer (AB Sciex, Brugg Switzerland). Detection was carried out using multiple reaction monitoring mode with positive-ion detection focusing. The pharmacokinetic parameters were derived from the plasma-time data and calculated using the standard non-compartmental method with WinNonlin (Pharsight, Mountain View, Calif.) or PK Solver (Comp. Meth. Prog. Biomed. (2010), 99, 306-314).
Values reported are the mean plasma concentration of three mice.

Row | Structure (SMILES) | EC50 [1] [nM] | EC50 [2] [nM] | EC50 [3] [nM] | Cmax [4] [ng/mL]
1 | COc1cnccc1-c1cccc(C(C)(C)NS(=O)(=O)c2cccc(Cl)c2Cl)c1 [Compound 2BC] | 1000 to 30000 | < 100 | < 100 | –
2 | CCOC(=O)CCCN(C(C)(C)c1cccc(-c2ccncc2C)c1)S(=O)(=O)c1ccccc1C(F)(F)F [Compound 14A, Ethyl 4-(N-(2-(3-(3-methylpyridin-4-yl)phenyl)propan-2-yl)-2-(trifluoromethyl)phenylsulfonamido)butanoate] | 100 to 999 | 100 to 999 | < 100 | –
3 | COCCN(C(C)(C)c1cccc(-c2ccncc2C)c1)S(=O)(=O)c1ccccc1C(F)(F)F [Compound 13AA, N-(2-methoxyethyl)-N-(2-(3-(3-methylpyridin-4-yl)phenyl)propan-2-yl)-2-(trifluoromethyl)benzenesulfonamide] | 100 to 999 | 100 to 999 | < 100 | –
4 | COc1cnccc1-c1cccc(C(C)(C)NS(=O)(=O)c2cccc(Cl)c2C)c1 [Compound 2BL] | 100 to 999 | < 100 | < 100 | –
5 | COC(=O)CN(C(C)(C)c1cccc(-c2ccncc2C)c1)S(=O)(=O)c1ccccc1C(F)(F)F [Compound 13, Methyl 2-(N-(2-(3-(3-methylpyridin-4-yl)phenyl)propan-2-yl)-2-(trifluoromethyl)phenylsulfonamido)acetate] | 1000 to 30000 | 100 to 999 | < 100 | –
6 | Cc1cnccc1-c1cccc(C(C)(C)N(CCCC(=O)NCCS(=O)(=O)O)S(=O)(=O)c2cccc(Cl)c2C)c1 [Compound 20AG, 2-(4-(3-chloro-2-methyl-N-(2-(3-(3-methylpyridin-4-yl)phenyl)propan-2-yl)phenylsulfonamido)butanamido)ethanesulfonic acid] | – | < 100 | < 100 | 1.4
7 | CCOC(=O)C[C@H](NS(=O)(=O)c1ccccc1C(F)(F)F)c1cccc(-c2ccncc2C)c1 [Compound 18A, (S)-ethyl 3-(3-(3-methylpyridin-4-yl)phenyl)-3-(2-(trifluoromethyl)phenylsulfonamido)-propanoate] | 1000 to 30000 | < 100 | < 100 | –

Further lines, results first:

Row | EC50 [1] [nM] | EC50 [2] [nM] | EC50 [3] [nM] | Cmax [4] [ng/mL] | Structure (SMILES)
8 | 100 to 999 | < 100 | 100 to 999 | – | Cc1cnccc1-c1cccc(C2CN(CCCC(=O)NCS(=O)(=O)O)CCN2S(=O)(=O)c2cccc(Cl)c2C)c1 (stereo not drawn) [Compound 53, (4-(4-((3-Chloro-2-methylphenyl)sulfonyl)-3-(3-(3-methylpyridin-4-yl)phenyl)piperazin-1-yl)butanamido)methanesulfonic acid]
9 | – | < 100 | < 100 | 122 | Cc1cnccc1-c1cccc([C@H](C)N(CCCC(=O)NCCNS(N)(=O)=O)S(=O)(=O)c2cccc(Cl)c2C)c1 [Compound 37, (S)-4-(3-chloro-2-methyl-N-(1-(3-(3-methylpyridin-4-yl)phenyl)ethyl)phenylsulfonamido)-N-(2-(sulfamoylamino)ethyl)butanamide]
10 | – | < 100 | < 100 | 109 | Cc1cnccc1-c1cccc(C(C)(C)N(CCCNC(=O)NCCS(N)(=O)=O)S(=O)(=O)c2cccc(Cl)c2C)c1 [Compound 29AB]
11 | – | 100 to 999 | < 100 | 25.4 | Cc1cnccc1-c1cccc(C(C)(C)N(CCCC(=O)NCC[N+](C)(C)C)S(=O)(=O)c2cccc(Cl)c2C)c1 [Compound 27AD, 2-(4-(3-chloro-2-methyl-N-(2-(3-(3-methylpyridin-4-yl)phenyl)propan-2-yl)phenylsulfonamido)butanamido)-N,N,N-trimethylethanaminium]
12 | – | < 100 | < 100 | 7.5 | Cc1cnccc1-c1cccc([C@H](C)N(CCCC(=O)NCCS(=O)(=O)NCC(=O)O)S(=O)(=O)c2cccc(Cl)c2Cl)c1 [Compound 36AA, (S)-2-(4-(3-chloro-N-(1-(3-(3-methylpyridin-4-yl)phenyl)ethyl)-2-chloro-phenylsulfonamido)butanamido)ethanesulfonamido acetic acid]
13 | – | < 100 | < 100 | 228 | CCc1cnccc1-c1cccc(C2CN(S(=O)(=O)CC(=O)O)CCN2S(=O)(=O)c2cccc(Cl)c2C)c1 (stereo not drawn) [Compound 47, 2-((4-((3-Chloro-2-methylphenyl)sulfonyl)-3-(3-(3-ethylpyridin-4-yl)phenyl)piperazin-1-yl)sulfonyl)acetic acid]
14 | – | < 100 | < 100 | 2.3 | CCc1cnccc1-c1cccc([C@H](C)N(CCCCC(=O)NCCS(=O)(=O)O)S(=O)(=O)c2cccc(Cl)c2C)c1 [Compound 20AS, (S)-2-(5-(3-chloro-N-(1-(3-(3-ethylpyridin-4-yl)phenyl)ethyl)-2-methylphenylsulfonamido)pentanamido)ethanesulfonic acid]
15 | – | < 100 | < 100 | 1.6 | CCc1cnccc1-c1cccc(C2CN(C(=O)CCCC(=O)O)CCN2S(=O)(=O)c2cccc(Cl)c2C)c1 (stereo not drawn) [Compound 46AA, 5-(4-((3-chloro-2-methylphenyl)sulfonyl)-3-(3-(3-ethylpyridin-4-yl)phenyl)piperazin-1-yl)-5-oxopentanoic acid]
16 | – | < 100 | < 100 | 14.3 | Cc1cnccc1-c1cccc([C@H](C)N(CCCC(=O)NCCS(=O)(=O)O)S(=O)(=O)c2cccc(Cl)c2C)c1 [Compound 21AG, (S)-2-(4-(3-chloro-2-methyl-N-(1-(3-(3-methylpyridin-4-yl)phenyl)ethyl)phenylsulfonamido)butanamido)ethanesulfonic acid]
